Reference: PubChem BioAssay AID248 (DTP/NCI, 2004)
Values joined by “and” are separate entries in the source; they are usually repeats but may differ in a detail not shown here. Equal entries are not always repeated. Toxic doses and inconclusive results are not listed. Rule as the data show it: active = T/C of 150% or more; inactive = T/C below 125%.

System: L1210 leukemia ip in BDF1 mice, survival T/C
Test: NCI In Vivo Anticancer Drug Screen. Data for tumor model L1210 Leukemia (intraperitoneal) in B6D2F1 (BDF1) mice
Details: higher = longer survival
Procedure, shortened: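 Tumor was transplanted into mice, which were then dosed with test compound or vehicle alone. Survival was recorded for each group, and the treated figure was expressed relative to the control figure.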

[1] = endpoint: mean survival time, dose: 100.0 mg/kg/injection, schedule: Q01DX001 (ip), vehicle: saline
[2] = endpoint: mean survival time, dose: 100.0 mg/kg/injection, schedule: Q01DX009 (ip), vehicle: saline
[3] = endpoint: mean survival time, dose: 200.0 mg/kg/injection, schedule: Q01DX009 (ip), vehicle: saline
[4] = endpoint: mean survival time, dose: 100.0 mg/kg/injection, schedule: Q04DX003 (ip), vehicle: saline
[5] = endpoint: mean survival time, dose: 200.0 mg/kg/injection, schedule: Q04DX003 (ip), vehicle: saline

Measured: T/C

C[C@@H]1C[C@@H]([C@H](O)CC2CC(=O)NC(=O)C2)C(=O)[C@@H](C)C1
inactive: endpoint: mean survival time, dose: 1.5 mg/kg/injection, schedule: Q01DX009 (ip), vehicle: saline with Tween-80 109 % of control | endpoint: mean survival time, dose: 4.31 mg/kg/injection, schedule: Q01DX Z (ip), vehicle: carboxymethylcellulose (CMC) 104 % of control | endpoint: mean survival time, dose: 5.0 mg/kg/injection, schedule: Q01DX010 (ip), vehicle: saline 103 % of control and 107 % of control | endpoint: mean survival time, dose: 7.5 mg/kg/injection, schedule: Q01DX Z (ip), vehicle: carboxymethylcellulose (CMC) 97 % of control and 100 % of control | endpoint: mean survival time, dose: 8.63 mg/kg/injection, schedule: Q01DX Z (ip), vehicle: carboxymethylcellulose (CMC) 102 % of control | endpoint: mean survival time, dose: 10.0 mg/kg/injection, schedule: Q01DX009 (ip), vehicle: acetone 106 % of control | endpoint: mean survival time, dose: 10.0 mg/kg/injection, schedule: Q01DX010 (ip), vehicle: saline 104 % of control and 108 % of control | endpoint: mean survival time, dose: 12.5 mg/kg/injection, schedule: Q01DX Z (ip), vehicle: carboxymethylcellulose (CMC) 108 % of control | endpoint: mean survival time, dose: 15.0 mg/kg/injection, schedule: Q01DX009 (ip), vehicle: Klucel (hydroxypropylcellulose) (HPC) 114 % of control | endpoint: mean survival time, dose: 15.0 mg/kg/injection, schedule: Q01DX009 (ip), vehicle: saline 123 % of control | endpoint: mean survival time, dose: 15.0 mg/kg/injection, schedule: Q01DX Z (ip), vehicle: carboxymethylcellulose (CMC) 108 % of control and 116 % of control | endpoint: mean survival time, dose: 16.0 mg/kg/injection, schedule: Q01DX015 (ip), vehicle: saline 119 % of control | endpoint: mean survival time, dose: 17.25 mg/kg/injection, schedule: Q01DX Z (ip), vehicle: carboxymethylcellulose (CMC) 103 % of control | endpoint: mean survival time, dose: 18.0 mg/kg/injection, schedule: Q01DX015 (ip), vehicle: saline 119 % of control | endpoint: mean survival time, dose: 20.0 mg/kg/injection, schedule: Q01DX009 (ip), vehicle: acetone 119 % of control | endpoint: mean survival time, dose: 20.0 mg/kg/injection, schedule: Q01DX010 (ip), vehicle: saline 110 % of control and 114 % of control | endpoint: mean survival time, dose: 24.3 mg/kg/injection, schedule: Q02DX010 (ip), vehicle: carboxymethylcellulose (CMC) 97 % of control | endpoint: mean survival time, dose: 25.0 mg/kg/injection, schedule: Q01DX Z (ip), vehicle: carboxymethylcellulose (CMC) 106 % of control | endpoint: mean survival time, dose: 25.0 mg/kg/injection, schedule: Q02DX010 (ip), vehicle: other 112 % of control | endpoint: mean survival time, dose: 27.0 mg/kg/injection, schedule: Q01DX015 (ip), vehicle: saline 107 % of control | endpoint: mean survival time, dose: 30.0 mg/kg/injection, schedule: Q01DX009 (ip), vehicle: Klucel (hydroxypropylcellulose) (HPC) 113 % of control | endpoint: mean survival time, dose: 30.0 mg/kg/injection, schedule: Q01DX009 (ip), vehicle: saline with Tween-80 121 % of control | endpoint: mean survival time, dose: 30.0 mg/kg/injection, schedule: Q04DX003 (ip), vehicle: Klucel (hydroxypropylcellulose) (HPC) 108 % of control | endpoint: mean survival time, dose: 32.0 mg/kg/injection, schedule: Q## X004 (ip), vehicle: saline 97 % of control | endpoint: mean survival time, dose: 34.5 mg/kg/injection, schedule: Q01DX Z (ip), vehicle: carboxymethylcellulose (CMC) 121 % of control | endpoint: mean survival time, dose: 36.0 mg/kg/injection, schedule: Q01DX015 (ip), vehicle: saline 115 % of control | endpoint: mean survival time, dose: 37.5 mg/kg/injection, schedule: Q02DX008 (ip), vehicle: saline 108 % of control | endpoint: mean survival time, dose: 38.0 mg/kg/injection, schedule: Q02DX010 (ip), vehicle: other 120 % of control | endpoint: mean survival time, dose: 40.0 mg/kg/injection, schedule: Q01DX010 (ip), vehicle: saline 109 % of control and 116 % of control | endpoint: mean survival time, dose: 42.0 mg/kg/injection, schedule: Q## X032 (ip), vehicle: saline 113 % of control | endpoint: mean survival time, dose: 44.0 mg/kg/injection, schedule: Q01DX001 (ip), vehicle: saline 103 % of control | endpoint: mean survival time, dose: 45.0 mg/kg/injection, schedule: Q01DX Z (ip), vehicle: methylcellulose (MC) 106 % of control | endpoint: mean survival time, dose: 45.0 mg/kg/injection, schedule: Q04DX003 (ip), vehicle: saline 106 % of control | endpoint: mean survival time, dose: 48.0 mg/kg/injection, schedule: Q## X004 (ip), vehicle: saline 96 % of control | endpoint: mean survival time, dose: 50.0 mg/kg/injection, schedule: Q01DX Z (ip), vehicle: carboxymethylcellulose (CMC) 118 % of control | endpoint: mean survival time, dose: 56.0 mg/kg/injection, schedule: Q02DX008 (ip), vehicle: saline 115 % of control | endpoint: mean survival time, dose: 60.0 mg/kg/injection, schedule: Q01DX009 (ip), vehicle: saline 102 % of control | endpoint: mean survival time, dose: 60.0 mg/kg/injection, schedule: Q01DX Z (ip), vehicle: methylcellulose (MC) 106 % of control | endpoint: mean survival time, dose: 60.0 mg/kg/injection, schedule: Q04DX003 (ip), vehicle: Klucel (hydroxypropylcellulose) (HPC) 122 % of control | endpoint: mean survival time, dose: 64.0 mg/kg/injection, schedule: Q## X032 (ip), vehicle: saline 106 % of control and 110 % of control | endpoint: mean survival time, dose: 67.0 mg/kg/injection, schedule: Q01DX001 (ip), vehicle: saline 115 % of control | endpoint: mean survival time, dose: 72.0 mg/kg/injection, schedule: Q## X004 (ip), vehicle: saline 112 % of control | endpoint: mean survival time, dose: 80.0 mg/kg/injection, schedule: Q01DX001 (ip), vehicle: alkali diluted with saline 107 % of control | endpoint: mean survival time, dose: 81.0 mg/kg/injection, schedule: Q01DX015 (ip), vehicle: saline 123 % of control | endpoint: mean survival time, dose: 85.5 mg/kg/injection, schedule: Q02DX010 (ip), vehicle: other 117 % of control | endpoint: mean survival time, dose: 90.0 mg/kg/injection, schedule: Q01DX009 (ip), vehicle: saline 97 % of control | endpoint: mean survival time, dose: 90.0 mg/kg/injection, schedule: Q04DX003 (ip), vehicle: saline 101 % of control | endpoint: mean survival time, dose: 96.0 mg/kg/injection, schedule: Q## X032 (ip), vehicle: saline 106 % of control and 115 % of control | [1] 114 % of control | endpoint: mean survival time, dose: 100.0 mg/kg/injection, schedule: Q01DX009 (ip), vehicle: saline with Tween-80 100 % of control | endpoint: mean survival time, dose: 100.0 mg/kg/injection, schedule: Q01DX Z (ip), vehicle: carboxymethylcellulose (CMC) 117 % of control | endpoint: mean survival time, dose: 100.0 mg/kg/injection, schedule: Q04DX003 (ip), vehicle: saline with Tween-80 112 % of control | endpoint: mean survival time, dose: 108.0 mg/kg/injection, schedule: Q## X004 (ip), vehicle: saline 106 % of control | endpoint: mean survival time, dose: 120.0 mg/kg/injection, schedule: Q01DX001 (ip), vehicle: alkali diluted with saline 106 % of control | endpoint: mean survival time, dose: 120.0 mg/kg/injection, schedule: Q01DX009 (ip), vehicle: Klucel (hydroxypropylcellulose) (HPC) 96 % of control | endpoint: mean survival time, dose: 120.0 mg/kg/injection, schedule: Q01DX009 (ip), vehicle: saline with Tween-80 116 % of control | endpoint: mean survival time, dose: 126.0 mg/kg/injection, schedule: Q02DX008 (ip), vehicle: saline 112 % of control | endpoint: mean survival time, dose: 128.25 mg/kg/injection, schedule: Q02DX010 (ip), vehicle: other 74 % of control | endpoint: mean survival time, dose: 144.0 mg/kg/injection, schedule: Q## X032 (ip), vehicle: saline 118 % of control and 123 % of control | endpoint: mean survival time, dose: 162.0 mg/kg/injection, schedule: Q## X004 (ip), vehicle: saline 110 % of control | endpoint: mean survival time, dose: 180.0 mg/kg/injection, schedule: Q01DX001 (ip), vehicle: alkali diluted with saline 103 % of control | endpoint: mean survival time, dose: 180.0 mg/kg/injection, schedule: Q04DX003 (ip), vehicle: saline 97 % of control | endpoint: mean survival time, dose: 189.0 mg/kg/injection, schedule: Q02DX008 (ip), vehicle: saline 114 % of control | endpoint: mean survival time, dose: 200.0 mg/kg/injection, schedule: Q04DX003 (ip), vehicle: saline with Tween-80 103 % of control | endpoint: mean survival time, dose: 216.0 mg/kg/injection, schedule: Q## X032 (ip), vehicle: saline 113 % of control and 117 % of control | endpoint: mean survival time, dose: 240.0 mg/kg/injection, schedule: Q04DX003 (ip), vehicle: Klucel (hydroxypropylcellulose) (HPC) 116 % of control | endpoint: mean survival time, dose: 320.0 mg/kg/injection, schedule: Q## X032 (ip), vehicle: saline 110 % of control | endpoint: median survival time, dose: 25.0 mg/kg/injection, schedule: Q04DX003 (ip), vehicle: alkali diluted with saline 103 % of control | endpoint: median survival time, dose: 50.0 mg/kg/injection, schedule: Q04DX003 (ip), vehicle: alkali diluted with saline 106 % of control | endpoint: median survival time, dose: 100.0 mg/kg/injection, schedule: Q04DX003 (ip), vehicle: alkali diluted with saline 103 % of control | endpoint: median survival time, dose: 200.0 mg/kg/injection, schedule: Q04DX003 (ip), vehicle: alkali diluted with saline 106 % of control

O=c1c2ccccc2nnn1-c1ccccc1Cl
inactive: [2] 105 % of control | [3] 103 % of control | endpoint: mean survival time, dose: 400.0 mg/kg/injection, schedule: Q01DX009 (ip), vehicle: saline 89 % of control

[O]=[Hf]=[O]
inactive: [4] 96 % of control | [5] 92 % of control | endpoint: mean survival time, dose: 400.0 mg/kg/injection, schedule: Q04DX003 (ip), vehicle: saline 97 % of control

CCN(CC)CCCC(C)NCCCN (stereo not given)
inactive: endpoint: mean survival time, dose: 50.0 mg/kg/injection, schedule: Q01DX009 (ip), vehicle: saline 94 % of control | [2] 100 % of control and 106 % of control | [4] 90 % of control | [3] 104 % of control and 92 % of control | [5] 90 % of control

O=C1Nc2ccccc2C1=Nc1ccccc1-c1ccccc1
inactive: [1] 91 % of control | endpoint: mean survival time, dose: 200.0 mg/kg/injection, schedule: Q01DX001 (ip), vehicle: saline 92 % of control | endpoint: mean survival time, dose: 400.0 mg/kg/injection, schedule: Q01DX001 (ip), vehicle: saline 96 % of control
